Key:
[1] = DPPH radical scavenging assay; details: mean ± SEM of three experiments; 30 min, 517 nm
Description: The DPPH scavenging activity of all synthesized compounds was measured as previously described by Nahar et al.[48] with some modifications. Briefly, 100 µL of different concentrations of the tested compounds (12.5, 25, 50, 100, and 200 µg/mL) were pipetted into a 96-well plate. Then, 100 µL of 100-µM DPPH methanolic solution were added to each well and the plate was incubated protected from light at room temperature for 30 min. The absorbance of the solution was measured at λ517 nm.[49] Ascorbic acid was used as the positive control while DMSO was the negative control. The percentage of DPPH scavenging activity was calculated according to the following equation: % of DPPH scavenging=[(Acontrol–Asample)/Acontrol] ×100, where Acontrol is the absorbance of the control reaction (with all reagents except the test compound), and Asample is the absorbance of the test sample. […] All tests were performed in triplicates.

[2] = NO scavenging assay (sodium nitroprusside / Griess reagent); details: for NO IC50: mean ± SEM of three experiments, 90 min, 546 nm
Description: The NO scavenging activity of all synthesized compounds was measured as previously described by Ho et al.[50] Briefly, 50 µL of different concentrations of the tested compounds (12.5, 25, 50,100, and 200 µg/mL) were pipetted into a 96-well plate. Then, 50 µL of 10-mM sodium nitroprussides dissolved in phosphate-buffered saline PBS (pH 7.4) were added to each well and the plate was incubated for 90 min at room temperature. Next, an equal volume of Griess reagent (1% of sulphanilamide and 0.1% of naphthyl ethylene diamine in 2.5% […]) was added to each well to measure the nitrite content. The absorbance of the formed pink-coloured chromophore was measured at λ 546 nm. DMSO and ascorbic acid were used as the negative and positive control, respectively. All tests were performed in triplicate. The percentage of NO scavenging activity was calculated according to the following equation: % of NO scavenging=[(Acontrol−Asample)/Acontrol]×100 where Acontrol is the absorbance of the control reaction (with all reagents except the test compound), and Asample is the absorbance of the test sample.

[3] = Superoxide scavenging assay (pyrogallol autoxidation); details: mean ± SEM of three experiments; pyrogallol autoxidation, 325 nm
Description: The improved pyrogallol autoxidation method was used to determine O2^−. RSA of all synthesized compounds as previously described. Briefly, 50 µL of test compounds (12.5, 25, 50,100, and 200 µg/mL) was added to 2900 µl of […] Tris HCl buffer (0.05 M, pH 7.4) containing 1-mM Na2EDTA. Next, 50 µL of 60-mM pyrogallol in1mM HCl had been thoroughly mixed with the mixture. The absorbance of the reaction mixture was measured at A325 nm every 30 s for 5 min. O2^− RSA was expressed by the oxidation degree of a test group in comparison to that of the control. The absorbance at 325 nm was measured against the Tris-HCl buffer every 30 s for 5 min. The percentage of scavenging effect was calculated using the following equation: O2^− radical scavenging %=[(ΔA325, control/T)−(ΔA325nm, sample/T)/ΔA325nm, control/T]×100 where ΔA325 nm, control is the increase in A325 nm of the reaction mixture without the sample and ΔA325 nm, sample is that for the mixture with the sample; T=5 min. The experiments were performed in triplicate.

Soybean 15-LOX enzyme = biological target: T1, Soybean 15-LOX enzyme (Glycine max, UniProt P08170); test: In vitro lipoxygenase inhibition (Cayman lipoxygenase inhibitor screening assay kit); format: biochemical; details: mean ± SEM of three experiments; substrate arachidonic acid
T1 construct: purchased Cayman Chemical 760700
T1 sequence (P08170 1-839): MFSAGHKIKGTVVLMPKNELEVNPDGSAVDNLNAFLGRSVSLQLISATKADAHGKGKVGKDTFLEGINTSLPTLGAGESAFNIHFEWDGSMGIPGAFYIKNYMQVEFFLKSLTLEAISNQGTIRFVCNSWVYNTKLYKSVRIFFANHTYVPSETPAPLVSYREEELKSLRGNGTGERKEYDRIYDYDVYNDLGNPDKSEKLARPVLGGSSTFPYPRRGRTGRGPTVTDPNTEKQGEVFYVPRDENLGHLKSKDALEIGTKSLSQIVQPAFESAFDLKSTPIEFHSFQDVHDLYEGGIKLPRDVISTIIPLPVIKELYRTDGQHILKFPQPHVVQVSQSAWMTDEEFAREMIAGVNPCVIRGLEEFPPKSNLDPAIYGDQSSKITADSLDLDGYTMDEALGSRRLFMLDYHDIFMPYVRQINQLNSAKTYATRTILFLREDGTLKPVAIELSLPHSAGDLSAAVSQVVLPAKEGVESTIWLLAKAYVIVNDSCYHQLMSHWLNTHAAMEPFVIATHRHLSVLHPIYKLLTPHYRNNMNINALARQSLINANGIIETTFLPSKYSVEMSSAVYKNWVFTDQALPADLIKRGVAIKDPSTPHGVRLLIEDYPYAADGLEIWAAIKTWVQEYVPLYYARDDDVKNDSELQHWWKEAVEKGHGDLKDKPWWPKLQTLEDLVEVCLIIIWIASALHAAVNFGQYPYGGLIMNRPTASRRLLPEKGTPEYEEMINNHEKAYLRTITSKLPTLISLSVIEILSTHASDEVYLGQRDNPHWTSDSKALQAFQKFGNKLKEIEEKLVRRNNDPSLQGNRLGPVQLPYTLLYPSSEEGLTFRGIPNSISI
Description: The assay was performed using Cayman’s lipoxygenase inhibitor screening assay kit (Catalog No. 760700, Cayman Chemical, USA) according to the manufacturer’s instructions. Briefly, 90 µL of 15-LOX was pipetted into a 96-well plate. Next, 10 µL of test compound at concentrations (2.5, 5.0 and 10 µM) dissolved in DMSO were added to each well. The reaction was initiated by adding 10 µL substrate (AA) and the plate was placed on a shaker for at least 5 minutes. Finally, 100 µL of chromogen (prepared according to manufacturer’s instructions) was added to each well to stop enzyme catalysis and develop the reaction. 100 µL of Assay buffer (0.1 M Tris-HCl, pH7.4) was used in blank wells. […] The absorbance of the solution was measured at λ 490–500 nm. The percentage inhibition was calculated according to the following equation: % inhibition =[(IA−Ainhibitor sample)/IA]×100 where (IA) is the 100% initial activity and (Ainhibitor sample) is the absorbance of the test sample. Dose–response curve was plotted between % inhibition and the drug concentration. The non-linear dose–response curve was used for calculating drug concentration showing 50% enzyme inhibition.

Row | DPPH IC50 [1] | NO IC50 [2] | melting point | IC50 (Soybean 15-LOX enzyme) | SMILES | Superoxide IC50 [3] | NO scavenging potency relative to ascorbic acid ([2]; folds that of ascorbic acid)
1 | >200 µg/mL | >200 µg/mL | 158 to 159 °C | – | O=C(/C=C/c1cn(-c2ccccc2)nc1-c1ccc2ccccc2c1)c1ccccc1 [Compound 2a, 3-(3-Naphthalen-2-yl-1-phenyl-1H-pyrazole-4-yl)-1-phenyl propenone] | >200 µg/mL | –
2 | 182.17 ± 0.99 µg/mL | 78.25 ± 1.25 µg/mL | 187 to 188 °C | 3.13 ± 0.09 µM | COc1ccc(C(=O)/C=C/c2cn(-c3ccccc3)nc2-c2ccc3ccccc3c2)cc1 [Compound 2b, 1-(4-Methoxyphenyl)-3-(3-naphthalen-2-yl-1-phenyl-1H-pyrazole-4-yl)-propenone] | >200 µg/mL | –
3 | 192.70 ± 1.63 µg/mL | >200 µg/mL | 146 to 147 °C | 2.8 ± 0.06 µM | Cc1ccc(C(=O)/C=C/c2cn(-c3ccccc3)nc2-c2ccc3ccccc3c2)cc1 [Compound 2c, 3-(3-Naphthalen-2-yl-1-phenyl-1H-pyrazol-4-yl)-1-p-tolyl propenone] | >200 µg/mL | –
4 | >200 µg/mL | >200 µg/mL | 161 to 162 °C | – | O=C(/C=C/c1cn(-c2ccccc2)nc1-c1ccc2ccccc2c1)c1ccc(Cl)cc1 [Compound 2d, 1-(4-chlorophenyl)-3-(3-naphthalen-2-yl-1-phenyl-1H-pyrazol-4-yl)propenone] | >200 µg/mL | –
5 | 118.99 ± 1.78 µg/mL | 11.04 ± 0.72 µg/mL | 168 to 169 °C | 4.63 ± 0.09 µM | O=C(/C=C/c1cn(-c2ccccc2)nc1-c1ccc2ccccc2c1)c1ccc(Cl)c(Cl)c1 [Compound 2e, 1-(3,4-Dichlorophenyl)-3-(3-naphthalen-2-yl-1-phenyl-1H-pyrazol-4-yl)propenone] | >200 µg/mL | 3.4 folds
6 | 11.70 ± 0.29 µg/mL | 147.95 ± 1.32 µg/mL | 177 to 178 °C | 4.6 ± 0.06 µM | COc1ccc(C2=NNC(c3cn(-c4ccccc4)nc3-c3ccc4ccccc4c3)C2)cc1 (stereo not drawn) [Compound 3b, 5-(4-Methoxyphenyl)-3′-naphthalen-2-yl-1′-phenyl-3,4-dihydro-2H,1’H-[3,4′] bipyrazole] | 118.65 ± 1.03 µg/mL | –
7 | 12.06 ± 1.17 µg/mL | >200 µg/mL | 187 to 188 °C | 3.77 ± 0.07 µM | Cc1ccc(C2=NNC(c3cn(-c4ccccc4)nc3-c3ccc4ccccc4c3)C2)cc1 (stereo not drawn) [Compound 3c, 3’-Naphthalen-2-yl-1’-phenyl-5-p-tolyl-3,4-dihydro-2H, 1’H -[3,4’]bipyrazole] | >200 µg/mL | –
8 | >200 µg/mL | >200 µg/mL | 190 to 191 °C | – | Clc1ccc(C2=NNC(c3cn(-c4ccccc4)nc3-c3ccc4ccccc4c3)C2)cc1 (stereo not drawn) [Compound 3d, 5-(4-Chlorophenyl)-3′-naphthalen-2-yl-1′-phenyl-3,4-dihydro-2H,1’H-[3,4′] bipyrazole] | >200 µg/mL | –
9 | 9.63 ± 0.55 µg/mL | 175.72 ± 1.41 µg/mL | 195 to 196 °C | 2.53 ± 0.07 µM | Clc1ccc(C2=NNC(c3cn(-c4ccccc4)nc3-c3ccc4ccccc4c3)C2)cc1Cl (stereo not drawn) [Compound 3e, 5-(3,4-Dichlorophenyl)-3′-naphthalen-2-yl-1′-phenyl-3,4-dihydro-2H,1’H-[3,4′]-bipyrazole] | 129.12 ± 0.82 µg/mL | –
10 | 34.39 ± 1.03 µg/mL | >200 µg/mL | 187 to 188 °C | 2.53 ± 0.09 µM | c1ccc(C2=NN(c3ccccc3)C(c3cn(-c4ccccc4)nc3-c3ccc4ccccc4c3)C2)cc1 (stereo not drawn) [Compound 4a, 3′-Naphthalen-2-yl-2,5,1′-triphenyl-3,4-dihydro-2H,1’H-[3,4′]bipyrazole] | 176.14 ± 1.63 µg/mL | –
11 | 21.28 ± 1.14 µg/mL | >200 µg/mL | 156 to 157 °C | 4 ± 0.06 µM | COc1ccc(C2=NN(c3ccccc3)C(c3cn(-c4ccccc4)nc3-c3ccc4ccccc4c3)C2)cc1 (stereo not drawn) [Compound 4b, 5-(4-Methoxyphenyl)-3′-naphthalen-2-yl-2,1′-diphenyl-3,4-dihydro-2H,1’H-[3,4′] bipyrazole] | 65.63 ± 1.46 µg/mL | –
12 | 24.42 ± 0.9 µg/mL | 179.9 ± 1.31 µg/mL | 198 to 199 °C | 1.83 ± 0.07 µM | Cc1ccc(C2=NN(c3ccccc3)C(c3cn(-c4ccccc4)nc3-c3ccc4ccccc4c3)C2)cc1 (stereo not drawn) [Compound 4c, 3′-Naphthalen-2-yl-2,1′-diphenyl-5-p-tolyl-3,4-dihydro-2H, 1’H -[3,4′]bipyrazole] | 145.7 ± 1.42 µg/mL | –
13 | >200 µg/mL | >200 µg/mL | 192 to 193 °C | – | Clc1ccc(C2=NN(c3ccccc3)C(c3cn(-c4ccccc4)nc3-c3ccc4ccccc4c3)C2)cc1 (stereo not drawn) [Compound 4d, 5-(4-Chlorophenyl)-3′-naphthalen-2-yl-2,1′-diphenyl-3,4-dihydro-2H,1'H-[3,4′] bipyrazole] | >200 µg/mL | –
14 | >200 µg/mL | >200 µg/mL | 185 to 186 °C | – | Clc1ccc(C2=NOC(c3cn(-c4ccccc4)nc3-c3ccc4ccccc4c3)C2)cc1 (stereo not drawn) [Compound 5d, 3-(4-Chlorophenyl)-5-(3-naphthalen-2-yl-1-phenyl-1H-pyrazol-4-yl)-4,5-dihydro isoxazole] | >200 µg/mL | –

Source: PMC7170299, “Design, synthesis, molecular modelling and biological evaluation of novel 3-(2-naphthyl)-1-phenyl-1H-pyrazole derivatives as potent antioxidants and 15-Lipoxygenase inhibitors” (Journal of Enzyme Inhibition and Medicinal Chemistry, 2020)
